Test results taken from PubChem BioAssay AID2060909 (Molecular Pharmacology Branch, DTP, NCI, 2025).
One block for each compound: values may come before it.

Tested on: 362531-283-R-J2-PDC complex spheroid viability
Experiment: Anticancer human tumor 362531-283-R-J2-PDC patient-derived colon adenocarcinoma cell line growth inhibition [RAS]
Details: for viability, T/C: stronger effect = lower value
Outline: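 Tumour cells grown as complex spheroids with HUVEC endothelial cells and mesenchymal stem cells, treated with RAS pathway inhibitor combinations. Each agent spans half-log steps from near clinical Cmax, or 10 microM where Cmax is unknown.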

[1] = curve of first compound, second compound 0.000949 µM
[2] = curve of first compound, second compound 0.003 µM
[3] = curve of first compound, second compound 0.00949 µM
[4] = curve of first compound, second compound 0.03 µM
[5] = curve of first compound, second compound 0.0949 µM
[6] = curve of first compound, second compound 0.3 µM
[7] = second compound 0.000949 µM, first compound 0.0316 µM
[8] = second compound 0.000949 µM, first compound 0.1 µM
[9] = second compound 0.000949 µM, first compound 0.316 µM
[10] = second compound 0.000949 µM, first compound 1 µM
[11] = second compound 0.000949 µM, first compound 3.16 µM
[12] = second compound 0.000949 µM, first compound 10 µM
[13] = second compound 0.003 µM, first compound 0.0316 µM
[14] = second compound 0.003 µM, first compound 0.1 µM
[15] = second compound 0.003 µM, first compound 0.316 µM
[16] = second compound 0.003 µM, first compound 1 µM
[17] = second compound 0.003 µM, first compound 3.16 µM
[18] = second compound 0.003 µM, first compound 10 µM
[19] = second compound 0.00949 µM, first compound 0.0316 µM
[20] = second compound 0.00949 µM, first compound 0.1 µM
[21] = second compound 0.00949 µM, first compound 0.316 µM
[22] = second compound 0.00949 µM, first compound 1 µM
[23] = second compound 0.00949 µM, first compound 3.16 µM
[24] = second compound 0.00949 µM, first compound 10 µM
[25] = second compound 0.03 µM, first compound 0.0316 µM
[26] = second compound 0.03 µM, first compound 0.1 µM
[27] = second compound 0.03 µM, first compound 0.316 µM
[28] = second compound 0.03 µM, first compound 1 µM
[29] = second compound 0.03 µM, first compound 3.16 µM
[30] = second compound 0.03 µM, first compound 10 µM
[31] = second compound 0.0949 µM, first compound 0.0316 µM
[32] = second compound 0.0949 µM, first compound 0.1 µM
[33] = second compound 0.0949 µM, first compound 0.316 µM
[34] = second compound 0.0949 µM, first compound 1 µM
[35] = second compound 0.0949 µM, first compound 3.16 µM
[36] = second compound 0.0949 µM, first compound 10 µM
[37] = second compound 0.3 µM, first compound 0.0316 µM
[38] = second compound 0.3 µM, first compound 0.1 µM
[39] = second compound 0.3 µM, first compound 0.316 µM
[40] = second compound 0.3 µM, first compound 1 µM
[41] = second compound 0.3 µM, first compound 3.16 µM
[42] = second compound 0.3 µM, first compound 10 µM
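Further: spheroids exposed to the agents for 7 days before readout.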
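Wherever viability, T/C is given: luminescence viability as percent of DMSO vehicle control wells.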

- IC50 [1]: > 10 µM
- IC50 [2]: > 10 µM
- IC50 [3]: > 10 µM
- IC50 [4]: > 10 µM
- IC50 [5]: > 10 µM
- IC50 [6]: > 10 µM
Compound: CC(C)NCC(C(=O)N1CCN(c2ncnc3c2C(C)CC3O)CC1)c1ccc(Cl)cc1 (centres undefined) + CCn1c(-c2cccnc2C(C)OC)c2c3cc(ccc31)N1CCOC(CC(NC(=O)C(C(C)C)N(C)C(=O)C3(F)CCN(C(=O)C#CC(C)(C)N(C)C)CC3)C(=O)N3CCCC(N3)C(=O)OCC(C)(C)C2)C1
- viability, T/C [7]: 97.8%
- viability, T/C [8]: 106%
- viability, T/C [9]: 91.4%
- viability, T/C [10]: 94.4%
- viability, T/C [11]: 101%
- viability, T/C [12]: 93.5%
- viability, T/C [13]: 103%
- viability, T/C [14]: 105%
- viability, T/C [15]: 94.4%
- viability, T/C [16]: 92.9%
- viability, T/C [17]: 94.1%
- viability, T/C [18]: 101%
- viability, T/C [19]: 92.9%
- viability, T/C [20]: 100%
- viability, T/C [21]: 95%
- viability, T/C [22]: 98.8%
- viability, T/C [23]: 98.3%
- viability, T/C [24]: 99%
- viability, T/C [25]: 104%
- viability, T/C [26]: 87.4%
- viability, T/C [27]: 96.7%
- viability, T/C [28]: 86.2%
- viability, T/C [29]: 97.3%
- viability, T/C [30]: 100%
- viability, T/C [31]: 92.2%
- viability, T/C [32]: 91.1%
- viability, T/C [33]: 103%
- viability, T/C [34]: 88.1%
- viability, T/C [35]: 94.9%
- viability, T/C [36]: 94.3%
- viability, T/C [37]: 90.8%
- viability, T/C [38]: 94.1%
- viability, T/C [39]: 97.8%
- viability, T/C [40]: 91.9%
- viability, T/C [41]: 98.9%
- viability, T/C [42]: 92%

- IC50 [1]: > 10 µM
- IC50 [2]: > 10 µM
- IC50 [3]: > 10 µM
- IC50 [4]: > 10 µM
- IC50 [5]: > 10 µM
- IC50 [6]: 3.74 µM
Compound: C[C@@H](NC(=O)c1ncnc(N)c1Cl)c1ncc(C(=O)Nc2cc(C(F)(F)F)c(Cl)cn2)s1 + CCn1c(-c2cc(N3CCN(C)CC3)cnc2C(C)OC)c2c3cc(ccc31)-c1csc(n1)CC(NC(=O)C1CC1C)C(=O)N1CCCC(N1)C(=O)OCC(C)(C)C2
- viability, T/C [7]: 107%
- viability, T/C [8]: 110%
- viability, T/C [9]: 94.3%
- viability, T/C [10]: 103%
- viability, T/C [11]: 96.1%
- viability, T/C [12]: 78.5%
- viability, T/C [13]: 106%
- viability, T/C [14]: 104%
- viability, T/C [15]: 93.3%
- viability, T/C [16]: 94.3%
- viability, T/C [17]: 85.6%
- viability, T/C [18]: 69.6%
- viability, T/C [19]: 94%
- viability, T/C [20]: 100%
- viability, T/C [21]: 95.9%
- viability, T/C [22]: 96.9%
- viability, T/C [23]: 86.3%
- viability, T/C [24]: 66%
- viability, T/C [25]: 107%
- viability, T/C [26]: 92.6%
- viability, T/C [27]: 91.7%
- viability, T/C [28]: 92%
- viability, T/C [29]: 78%
- viability, T/C [30]: 62.1%
- viability, T/C [31]: 79.3%
- viability, T/C [32]: 87%
- viability, T/C [33]: 78.7%
- viability, T/C [34]: 73.7%
- viability, T/C [35]: 76.2%
- viability, T/C [36]: 62.5%
- viability, T/C [37]: 56.6%
- viability, T/C [38]: 56.2%
- viability, T/C [39]: 58.5%
- viability, T/C [40]: 59.9%
- viability, T/C [41]: 72%
- viability, T/C [42]: 26.3%

- IC50 (curve of compound): 507 nM [middle of 4 runs]
Compound: O=C(c1ccc(F)c(F)c1Nc1ccc(I)cc1F)N1CC(O)([C@@H]2CCCCN2)C1
- viability, T/C (compound 0.00316 µM): 100% [middle of 4 runs]
- viability, T/C (compound 0.01 µM): 94.8% [middle of 4 runs]
- viability, T/C (compound 0.1 µM): 90.7% [middle of 4 runs]
- viability, T/C (compound 0.316 µM): 64.7% [middle of 4 runs]
- viability, T/C (compound 1 µM): 19% [middle of 4 runs]

- IC50 [1]: > 10 µM
- IC50 [2]: > 10 µM
- IC50 [3]: > 10 µM
- IC50 [4]: > 10 µM
- IC50 [5]: > 10 µM
- IC50 [6]: > 10 µM
Compound: C[C@@H](NC(=O)c1ncnc(N)c1Cl)c1ncc(C(=O)Nc2cc(C(F)(F)F)c(Cl)cn2)s1 + CCn1c(-c2cccnc2C(C)OC)c2c3cc(ccc31)N1CCOC(CC(NC(=O)C(C(C)C)N(C)C(=O)C3(F)CCN(C(=O)C#CC(C)(C)N(C)C)CC3)C(=O)N3CCCC(N3)C(=O)OCC(C)(C)C2)C1
- viability, T/C [7]: 111%
- viability, T/C [8]: 107%
- viability, T/C [9]: 91.5%
- viability, T/C [10]: 106%
- viability, T/C [11]: 73.3%
- viability, T/C [12]: 61.4%
- viability, T/C [13]: 112%
- viability, T/C [14]: 94%
- viability, T/C [15]: 109%
- viability, T/C [16]: 92.5%
- viability, T/C [17]: 79.2%
- viability, T/C [18]: 66%
- viability, T/C [19]: 105%
- viability, T/C [20]: 108%
- viability, T/C [21]: 87.1%
- viability, T/C [22]: 88.5%
- viability, T/C [23]: 82.1%
- viability, T/C [24]: 73.6%
- viability, T/C [25]: 107%
- viability, T/C [26]: 99.3%
- viability, T/C [27]: 105%
- viability, T/C [28]: 91.7%
- viability, T/C [29]: 89.7%
- viability, T/C [30]: 64.9%
- viability, T/C [31]: 97.9%
- viability, T/C [32]: 96.1%
- viability, T/C [33]: 89.5%
- viability, T/C [34]: 91.4%
- viability, T/C [35]: 87.7%
- viability, T/C [36]: 73.9%
- viability, T/C [37]: 103%
- viability, T/C [38]: 101%
- viability, T/C [39]: 85.4%
- viability, T/C [40]: 87.1%
- viability, T/C [41]: 91.9%
- viability, T/C [42]: 80.1%

- IC50 (curve of first compound, second compound 0.0316 µM): > 10 µM
- IC50 (curve of first compound, second compound 0.1 µM): > 10 µM
- IC50 (curve of first compound, second compound 0.316 µM): 3.08 µM
- IC50 (curve of first compound, second compound 1 µM): 3.43 µM
- IC50 (curve of first compound, second compound 3.16 µM): 1.29 µM
- IC50 (curve of first compound, second compound 10 µM): < 0.0316 µM
Compound: CC1(O)CCCC1n1c(=O)c(C(F)F)cc2cnc(NC3CCN(S(C)(=O)=O)CC3)nc21 (centres undefined) + C#Cc1c(F)ccc2cc(O)cc(-c3ncc4c(N5CC6CCC(C5)N6)nc(OCC56CCCN5CC(F)C6)nc4c3F)c12
- viability, T/C (second compound 0.0316 µM, first compound 0.0316 µM): 92.6%
- viability, T/C (second compound 0.0316 µM, first compound 0.1 µM): 91.8%
- viability, T/C (second compound 0.0316 µM, first compound 0.316 µM): 71.8%
- viability, T/C (second compound 0.0316 µM, first compound 1 µM): 71%
- viability, T/C (second compound 0.0316 µM, first compound 3.16 µM): 62.3%
- viability, T/C (second compound 0.0316 µM, first compound 10 µM): 81%
- viability, T/C (second compound 0.1 µM, first compound 0.0316 µM): 95.4%
- viability, T/C (second compound 0.1 µM, first compound 0.1 µM): 92.5%
- viability, T/C (second compound 0.1 µM, first compound 0.316 µM): 80.9%
- viability, T/C (second compound 0.1 µM, first compound 1 µM): 73.4%
- viability, T/C (second compound 0.1 µM, first compound 3.16 µM): 68.7%
- viability, T/C (second compound 0.1 µM, first compound 10 µM): 73.2%
- viability, T/C (second compound 0.316 µM, first compound 0.0316 µM): 82.7%
- viability, T/C (second compound 0.316 µM, first compound 0.1 µM): 89.1%
- viability, T/C (second compound 0.316 µM, first compound 0.316 µM): 74.6%
- viability, T/C (second compound 0.316 µM, first compound 1 µM): 66.4%
- viability, T/C (second compound 0.316 µM, first compound 3.16 µM): 49.8%
- viability, T/C (second compound 0.316 µM, first compound 10 µM): 37%
- viability, T/C (second compound 1 µM, first compound 0.0316 µM): 82.8%
- viability, T/C (second compound 1 µM, first compound 0.1 µM): 80.5%
- viability, T/C (second compound 1 µM, first compound 0.316 µM): 67.7%
- viability, T/C (second compound 1 µM, first compound 1 µM): 69.3%
- viability, T/C (second compound 1 µM, first compound 3.16 µM): 53.9%
- viability, T/C (second compound 1 µM, first compound 10 µM): 20.4%
- viability, T/C (second compound 3.16 µM, first compound 0.0316 µM): 59.2%
- viability, T/C (second compound 3.16 µM, first compound 0.1 µM): 59.8%
- viability, T/C (second compound 3.16 µM, first compound 0.316 µM): 61.4%
- viability, T/C (second compound 3.16 µM, first compound 1 µM): 54.7%
- viability, T/C (second compound 3.16 µM, first compound 3.16 µM): 32%
- viability, T/C (second compound 3.16 µM, first compound 10 µM): 7.49%
- viability, T/C (second compound 10 µM, first compound 0.0316 µM): 45.1%
- viability, T/C (second compound 10 µM, first compound 0.1 µM): 50.7%
- viability, T/C (second compound 10 µM, first compound 0.316 µM): 29.9%
- viability, T/C (second compound 10 µM, first compound 1 µM): 29.7%
- viability, T/C (second compound 10 µM, first compound 3.16 µM): 24.7%
- viability, T/C (second compound 10 µM, first compound 10 µM): 5.91%
